In US10919903B2, “Nitrogen-containing heterocyclic compounds as FXR modulators” (Hepagene Therapeutics (HK) Limited, priority 2016, dated 2021):

Key:
FXR = molecular target: T1, FXR (Homo sapiens, UniProt Q96RI1); assay: FXR Transactivation Assay (GAL4 luciferase reporter, pBIND-FXR in HEK293T); assay type: cell-based; conditions: HEK293T cells
T1 construct: expressed in transfected cells; host or cells: HEK293T
T1 sequence (Q96RI1 1-486): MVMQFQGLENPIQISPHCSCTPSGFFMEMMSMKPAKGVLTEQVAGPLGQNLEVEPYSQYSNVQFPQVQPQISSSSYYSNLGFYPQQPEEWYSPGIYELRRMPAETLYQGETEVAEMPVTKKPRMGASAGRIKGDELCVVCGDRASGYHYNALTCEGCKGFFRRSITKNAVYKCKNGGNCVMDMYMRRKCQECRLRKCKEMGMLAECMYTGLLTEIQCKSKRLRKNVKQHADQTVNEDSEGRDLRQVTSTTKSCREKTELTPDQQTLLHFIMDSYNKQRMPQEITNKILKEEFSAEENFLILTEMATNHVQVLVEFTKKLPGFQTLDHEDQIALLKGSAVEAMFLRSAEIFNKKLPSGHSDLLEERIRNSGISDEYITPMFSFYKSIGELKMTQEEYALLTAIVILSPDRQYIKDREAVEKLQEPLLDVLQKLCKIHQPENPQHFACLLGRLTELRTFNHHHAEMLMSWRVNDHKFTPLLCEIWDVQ
Description: FXR Transactivation Assay
pGL4.35 [luc2P/9XGAL4 UAS/Hygro]
Steady-Glo™ Luciferase Assay System
GW4064 as a positive control
(§1) • 1. Hek293T cells were plated at 1.1*10^6/ml into a 100 mm dish. • 2. […] Cells were incubated at 37° C. under 5% CO2 atmosphere. • 3. All of compounds were 3-fold serial diluted from 10 mM stock for 10 doses in DMSO. • 4. Transfer compound dilutions into 384 well assay plates using liquid workstation. • 5. Seed 25 ul HEK293T cells into 384 well assay plate (prepared step 4) at 0.6*10^5/ml. Cells were incubated at 37° C. under 5% CO2 atmosphere overnight. • 6. Add 25 ul steady-Glo™ Luciferase Assay Reagent into each well of 384-well assay plate. • 7. […] Calculate EC50 by fitting % Activity values and log of compound concentrations to nonlinear regression (dose response−variable slope) with Graphpad 5.0. FXR Coactivator Assay Reagents: LanthaScreen™ TR-FRET Farnesoid X Receptor Coactivator Assay GW4064 as a positive control Process: • 1. All of compounds were 3-fold serial diluted from 10 mM stock for 10 doses in DMSO. • 2. Dilute each 100× agonist serial dilution to 2× using Complete Coregulator buffer G. • 3. Transfer 10 μl of each of the 2× agonist serial dilutions to 384 well assay plates. • 4. Add 5 μl of 4×FXR-LBD to 384 well assay plates. • 5. […] Incubate at room temperature protected from light. • 7. […] Calculate EC50 by fitting % Activity values and log of compound concentrations to nonlinear regression (dose response−variable slope) with Graphpad 5.0.

FXR-LBD = molecular target: T2, FXR-LBD (Homo sapiens, UniProt Q96RI1); assay: FXR Coactivator Assay (LanthaScreen TR-FRET); assay type: biochemical
T2 construct: Add 5 μl of 4×FXR-LBD to 384 well assay plates; purchased
T2 sequence (Q96RI1 262-486 limits assumed): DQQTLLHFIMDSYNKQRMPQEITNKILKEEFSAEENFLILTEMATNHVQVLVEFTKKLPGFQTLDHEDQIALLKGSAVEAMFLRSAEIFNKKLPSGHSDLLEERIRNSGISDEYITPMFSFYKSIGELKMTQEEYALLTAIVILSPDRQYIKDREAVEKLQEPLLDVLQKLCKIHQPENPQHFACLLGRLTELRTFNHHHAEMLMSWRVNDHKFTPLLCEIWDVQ
Description: as §1

Compound	EC50 (FXR) [nM]	EC50 (FXR-LBD) [nM]
COc1cc(C(=O)O)cc2sc(N3CCN(Cc4c(-c5c(Cl)cccc5Cl)noc4C(C)C)CC3(C)C)nc12 [II-16]	101 to 400	10 to 100
COc1cc(C(=O)O)cc2sc(N3CCN(Cc4c(-c5c(Cl)cccc5Cl)noc4C(C)C)C(C)(C)C3)nc12 [II-22, 2-(4-[[3-(2,6-Dichlorophenyl)-5-(propan-2-yl)-1,2-oxazol-4-yl]methyl]-3,3-dimethylpiperazin-1-yl)-4-methoxy-1,3-benzothiazole-6-carboxylic acid]	101 to 400	10 to 100
COc1cc(C(=O)O)cc2sc(N3CCCN(Cc4c(-c5c(Cl)cccc5Cl)noc4C(C)C)CC3)nc12 [II-40]	101 to 400	10 to 100
COc1cc(C(=O)O)cc2sc(N3CCN(Cc4c(-c5c(Cl)cccc5Cl)noc4C4CC4)CC3C)nc12 (centres unmarked) [II-11]	101 to 400	10 to 100
